How the values were obtained:
[1] = system: rabbits; experiment: Acute eye irritation (OECD guideline No. 405, method B.5); format: in vivo, rabbit; settings: 3 rabbits
Experimental: Similarly, the molecule was tested on 3 rabbits according to the experimental protocol established by “the OECD guideline No. 405 dated Apr. 24, 2002” and the test “method B.5 of the Directive No. 2004/73/EC): Acute eye irritation”.
It also emerges therefrom that 9-decen-2-one is not irritant and that no hazard symbol or phrases are required for its use (according to the “EEC Directives 67/548/59 and 99/45”).

[2] = LD50 test (acute oral toxicity); settings: in vivo
[3] = system: rabbits; experiment: Acute dermal irritation (OECD guideline No. 404, method B.4); format: in vivo, rabbit; settings: 3 rabbits
Experimental: The molecule was tested on 3 rabbits according to the experimental protocol established by “the OECD guideline No. 404 dated Apr. 24, 2002” and the test “method B.4 of the Directive No. 2004/73/EC): Acute dermal irritation”.
It emerges therefrom that 9-decen-2-one is not irritant and that no hazard symbol or phrases are required for its use (according to the “EEC Directives 67/548/59 and 99/45”).

C=CCCCCCCC(C)=O [9-decen-2-one]
Acute eye irritation [1]: not irritant
LD50 [2]: 2500 mg/kg
Acute dermal irritation [3]: not irritant

From US8481789B2, “Method for producing natural 9-decen-2-one by bioconverting undecylenic acid using a mold, and use in the perfume and food flavoring fields” (priority 2008, dated 2013)
